Experimental data from PMC5701749 (Biochemistry, 2017).
“And” between values parts separate entries of the source, which are not always exact repeats. Equal values may be shown once. Read-outs that look alike come from different tables or passages of the source.

Columns and labels:
mouse P-gp mdr1a [1] = target: T1, mouse P-gp mdr1a (Mus musculus, UniProt P21447); details: DMPC nanodiscs; for V2 (rate of ATP hydrolysis at infinite substrate concentration): footnote a = parameter reaching constraint set at >0; for K1 (substrate concentration for half-maximal stimulation of ATPase activity): footnote d = ambiguous, lack of ATPase stimulation
murine P-gp [2] = target: T2, murine P-gp (Mus musculus, UniProt P21447); details: for displacement of BD-verapamil from P-gp (in words) / displacement of BD-vinblastine from P-gp (in words): FCS competition; for n (Hill coefficient): drug displacing BD-vinblastine from P-gp nanodiscs
murine P-gp [3] = target: T2, murine P-gp; experiment: biochemical
[4] = FCS binding of fluorescent probes to empty nanodiscs; details: ND = not determined because of minimal binding
murine P-gp [5] = target: T2, murine P-gp
mouse P-gp mdr1a [6] = target: T1, mouse P-gp mdr1a; details: E. coli lipid nanodiscs; for V1 (maximal rate of ATP hydrolysis when there is only activation): footnote b = parameter held constant
murine P-gp [7] = target: T2, murine P-gp; format: biochemical; details: inside-out murine P-gp vesicles, ATP-dependent, 117 nM Flutax-2, 37 °C
mouse P-gp = mouse P-gp (Mus musculus, UniProt P21447); experiment: ATPase assay in mouse P-gp vesicles; format: biochemical; details: concentration range studied
[8] = ATP and Vi (1 mM ATP, 240 μM Vi), vanadate-trapped, apparent KD
[9] = apo (control), nucleotide-free, apparent KD, high-affinity site

T1 sequence (P21447 whole entry): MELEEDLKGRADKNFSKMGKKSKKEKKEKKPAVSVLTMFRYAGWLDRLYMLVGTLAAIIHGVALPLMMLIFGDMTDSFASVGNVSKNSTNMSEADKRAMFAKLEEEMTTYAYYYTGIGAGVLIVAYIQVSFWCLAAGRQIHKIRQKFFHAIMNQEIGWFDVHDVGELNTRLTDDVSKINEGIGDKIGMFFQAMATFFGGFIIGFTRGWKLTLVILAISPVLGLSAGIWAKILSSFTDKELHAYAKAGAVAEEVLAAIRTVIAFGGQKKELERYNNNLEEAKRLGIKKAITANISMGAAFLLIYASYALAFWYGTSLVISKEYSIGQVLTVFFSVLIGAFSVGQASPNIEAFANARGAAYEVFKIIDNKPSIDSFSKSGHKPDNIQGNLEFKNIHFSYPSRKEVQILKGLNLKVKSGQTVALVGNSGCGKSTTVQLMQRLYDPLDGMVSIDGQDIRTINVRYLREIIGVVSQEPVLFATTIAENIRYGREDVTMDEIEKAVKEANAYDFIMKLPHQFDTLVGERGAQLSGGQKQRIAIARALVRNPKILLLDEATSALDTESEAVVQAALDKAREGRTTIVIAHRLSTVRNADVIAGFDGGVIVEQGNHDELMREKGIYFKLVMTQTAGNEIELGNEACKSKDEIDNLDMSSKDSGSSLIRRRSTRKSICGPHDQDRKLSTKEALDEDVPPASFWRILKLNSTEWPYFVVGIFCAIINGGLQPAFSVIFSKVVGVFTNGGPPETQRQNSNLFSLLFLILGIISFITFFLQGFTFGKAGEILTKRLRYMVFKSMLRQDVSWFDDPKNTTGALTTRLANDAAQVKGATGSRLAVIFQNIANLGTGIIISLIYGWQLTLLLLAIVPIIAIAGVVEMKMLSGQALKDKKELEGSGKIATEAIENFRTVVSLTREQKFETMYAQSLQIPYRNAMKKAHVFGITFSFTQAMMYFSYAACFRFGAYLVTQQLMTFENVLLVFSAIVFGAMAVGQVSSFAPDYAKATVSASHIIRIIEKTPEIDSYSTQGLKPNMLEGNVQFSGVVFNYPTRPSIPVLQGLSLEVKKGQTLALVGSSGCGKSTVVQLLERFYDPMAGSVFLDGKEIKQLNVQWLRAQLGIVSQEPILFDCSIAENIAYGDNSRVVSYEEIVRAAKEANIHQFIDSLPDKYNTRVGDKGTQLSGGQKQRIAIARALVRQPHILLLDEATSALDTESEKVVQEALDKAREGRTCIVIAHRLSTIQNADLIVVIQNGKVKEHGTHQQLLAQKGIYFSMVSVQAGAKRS
T2 sequence (P21447 whole entry): as above
mouse P-gp, sequence (P21447 whole entry): as above

Molecule	V2 (rate of ATP hydrolysis at infinite substrate concentration) (mouse P-gp mdr1a [1])	K1 (substrate concentration for half-maximal stimulation of ATPase activity) (mouse P-gp mdr1a [1])	displacement of BD-verapamil from P-gp (in words) (murine P-gp [2])	displacement of BD-vinblastine from P-gp (in words) (murine P-gp [2])	n (Hill coefficient) (murine P-gp [2])	Kd (murine P-gp [5]; AMP-PNP (1 mM), apparent KD)	Kd (murine P-gp [5]; [8])	Kd (murine P-gp [5]; [9])	V2 (rate of ATP hydrolysis at infinite substrate concentration) (mouse P-gp mdr1a [6])	stimulation of ATPase activity (in words) (mouse P-gp mdr1a [6])	V1 (maximal rate of ATP hydrolysis when there is only activation) (mouse P-gp mdr1a [6])	Kd [4]	other results
CC(=O)O[C@H]1C(=O)[C@@]2(C)[C@H]([C@H](OC(=O)c3ccccc3)[C@]3(O)C[C@H](OC(=O)[C@H](O)[C@@H](NC(=O)c4ccccc4)c4ccccc4)C(C)=C1C3(C)C)[C@]1(OC(C)=O)CO[C@@H]1C[C@@H]2O [paclitaxel]	48 ± 6 nmol of Pi min^−1 mg^−1	1.3 ± 0.5 µM	did not displace	displaced	0.5 ± 0.5	–	–	–	–	–	–	–	–
CC[C@]1(O)C[C@@H]2CN(CCc3c([nH]c4ccccc34)[C@@](C(=O)OC)(c3cc4c(cc3OC)N(C)[C@H]3[C@@](O)(C(=O)OC)[C@H](OC(C)=O)[C@]5(CC)C=CCN6CC[C@]43[C@@H]65)C2)C1 [vinblastine]	>0 ^a nmol of Pi min^−1 mg^−1	2.6 ± 1.0 µM	displaced	displaced	0.4± 0.1	–	–	–	–	–	–	–	IC50 (murine P-gp [3]): 17500 ± 11000 nM
BODIPY FL verapamil [BD-verapamil]	–	–	–	–	–	–	–	–	–	–	–	–	KD [4]: negligible binding
BODIPY vinblastine [BD-vinblastine]	21 ± 4 nmol of Pi min^−1 mg^−1	–	–	–	–	83 ± 12 nM	290 ± 40 nM	42 ± 6 nM	156.5 ± 24.8 nmol of Pi min^−1 mg^−1	Neither BD-vinblastine or Flutax-2 stimulated ATPase activity	465 ^b nmol of Pi min^−1 mg^−1	1700 nM and 1670 nM	stimulation of ATP hydrolysis over basal ATPase activity (mouse P-gp mdr1a [1]): ~ 2 fold; increase in KD (decrease in affinity) with AMP-PNP (murine P-gp [5]; AMP-PNP vs nucleotide-free): 1.9 fold and 2 fold; increase in KD (decrease in affinity) in vanadate-trapped state (murine P-gp [5]; ATP and Vi vs nucleotide-free): 6.8 fold
Oregon Green 488 Paclitaxel [Flutax-2]	18 ± 2 nmol of Pi min^−1 mg^−1	0.3 ± 0.7 ^d μM	–	–	–	530 ± 90 nM	490 ± 80 nM	520 ± 90 nM	33.2 ± 46.8 nmol of Pi min^−1 mg^−1	no stimulation	500 ^b nmol of Pi min^−1 mg^−1	3600 nM and 3630 nM	initial transport rate (murine P-gp [7]): ~42 pmol (mg of total protein)^−1 min^−1; stimulation of ATPase activity (in words) (mouse P-gp mdr1a [1]): does not stimulate ATPase activity; Kd (murine P-gp [5]; nucleotide-free, high-affinity interaction): 519 nM; K1 (substrate concentration for half-maximal stimulation of ATPase activity) (mouse P-gp mdr1a [6]; footnote d = ambiguous, lack of ATPase stimulation): 0.2 ± 0.3 ^d μM; stimulation of ATPase activity (in words) (mouse P-gp): did not stimulate ATPase activity
